The record followed here is ChEMBL document CHEMBL5385898, “Recent advances in nuclear receptor-binding SET domain 2 (NSD2) inhibitors: An update and perspectives” (Eur J Med Chem, 2023).

Experiment [1] in a line: Inhibition of GST-tagged NSD3 (247 to 398 residues) (unknown origin) /PWWP1 (unknown origin) protein-protein interaction incubated for 60 mins by TR-FRET assay. Further details: species or system Homo sapiens.
Experiment [2] deals with T1, Histone-lysine N-methyltransferase NSD2 (Homo sapiens, UniProt O96028).
T1 sequence (O96028 whole entry): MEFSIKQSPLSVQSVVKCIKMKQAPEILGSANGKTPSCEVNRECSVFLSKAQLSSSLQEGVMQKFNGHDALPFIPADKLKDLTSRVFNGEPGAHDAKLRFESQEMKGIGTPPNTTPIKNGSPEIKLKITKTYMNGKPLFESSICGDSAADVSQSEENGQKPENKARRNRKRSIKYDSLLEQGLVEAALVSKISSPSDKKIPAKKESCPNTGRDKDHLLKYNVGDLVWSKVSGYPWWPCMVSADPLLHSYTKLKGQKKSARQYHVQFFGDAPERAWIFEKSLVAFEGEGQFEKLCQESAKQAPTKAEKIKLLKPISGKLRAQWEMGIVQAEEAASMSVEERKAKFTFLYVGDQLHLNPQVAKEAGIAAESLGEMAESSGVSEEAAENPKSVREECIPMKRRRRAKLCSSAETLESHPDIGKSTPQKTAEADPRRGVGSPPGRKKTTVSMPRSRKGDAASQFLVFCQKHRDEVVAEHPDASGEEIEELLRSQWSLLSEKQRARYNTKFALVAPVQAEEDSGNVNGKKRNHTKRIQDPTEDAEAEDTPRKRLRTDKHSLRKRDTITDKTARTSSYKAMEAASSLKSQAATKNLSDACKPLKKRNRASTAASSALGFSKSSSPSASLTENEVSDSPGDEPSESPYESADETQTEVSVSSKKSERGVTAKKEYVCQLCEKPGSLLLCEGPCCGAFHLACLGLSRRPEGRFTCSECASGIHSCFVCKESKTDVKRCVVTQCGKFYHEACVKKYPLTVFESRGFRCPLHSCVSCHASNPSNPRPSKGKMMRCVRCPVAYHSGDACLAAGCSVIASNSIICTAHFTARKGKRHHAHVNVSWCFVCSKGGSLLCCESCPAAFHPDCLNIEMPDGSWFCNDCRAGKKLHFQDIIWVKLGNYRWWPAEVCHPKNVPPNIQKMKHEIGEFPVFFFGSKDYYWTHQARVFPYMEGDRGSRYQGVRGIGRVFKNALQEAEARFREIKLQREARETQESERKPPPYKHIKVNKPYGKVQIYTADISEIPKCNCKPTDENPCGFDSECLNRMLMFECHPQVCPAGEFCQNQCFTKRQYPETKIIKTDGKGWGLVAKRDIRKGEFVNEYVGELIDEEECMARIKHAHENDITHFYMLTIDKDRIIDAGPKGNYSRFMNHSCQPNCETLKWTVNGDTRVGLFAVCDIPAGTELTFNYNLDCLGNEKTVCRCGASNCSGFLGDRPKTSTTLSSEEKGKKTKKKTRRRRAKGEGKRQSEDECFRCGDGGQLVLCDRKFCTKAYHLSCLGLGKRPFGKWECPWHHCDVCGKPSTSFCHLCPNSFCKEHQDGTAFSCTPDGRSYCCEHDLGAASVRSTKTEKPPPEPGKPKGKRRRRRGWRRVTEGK
The experiment in a line: Inhibition of MMSET (unknown origin).

For experiment [3], the target named is T1, Histone-lysine N-methyltransferase NSD2. The experiment in a line: Inhibition of NSD2 (unknown origin).
Experiment [4] has the same target. The experiment in a line: Binding affinity to human biotinylated NSD2 (208 to 368 residues) expressed in Escherichia coli BL21(DE3) by SPR assay.
For experiment [5] the target is unchanged. In words: Inhibition of NSD2 (unknown origin) using H3K36 as substrate.
Experiment [6] deals with Histone-lysine N-methyltransferase, H3 lysine-36 specific (Homo sapiens, UniProt Q96L73). The experiment in a line: Inhibition of NSD1 (unknown origin) using H3K36 as substrate.
Chain of Histone-lysine N-methyltransferase, H3 lysine-36 specific (Q96L73 whole entry): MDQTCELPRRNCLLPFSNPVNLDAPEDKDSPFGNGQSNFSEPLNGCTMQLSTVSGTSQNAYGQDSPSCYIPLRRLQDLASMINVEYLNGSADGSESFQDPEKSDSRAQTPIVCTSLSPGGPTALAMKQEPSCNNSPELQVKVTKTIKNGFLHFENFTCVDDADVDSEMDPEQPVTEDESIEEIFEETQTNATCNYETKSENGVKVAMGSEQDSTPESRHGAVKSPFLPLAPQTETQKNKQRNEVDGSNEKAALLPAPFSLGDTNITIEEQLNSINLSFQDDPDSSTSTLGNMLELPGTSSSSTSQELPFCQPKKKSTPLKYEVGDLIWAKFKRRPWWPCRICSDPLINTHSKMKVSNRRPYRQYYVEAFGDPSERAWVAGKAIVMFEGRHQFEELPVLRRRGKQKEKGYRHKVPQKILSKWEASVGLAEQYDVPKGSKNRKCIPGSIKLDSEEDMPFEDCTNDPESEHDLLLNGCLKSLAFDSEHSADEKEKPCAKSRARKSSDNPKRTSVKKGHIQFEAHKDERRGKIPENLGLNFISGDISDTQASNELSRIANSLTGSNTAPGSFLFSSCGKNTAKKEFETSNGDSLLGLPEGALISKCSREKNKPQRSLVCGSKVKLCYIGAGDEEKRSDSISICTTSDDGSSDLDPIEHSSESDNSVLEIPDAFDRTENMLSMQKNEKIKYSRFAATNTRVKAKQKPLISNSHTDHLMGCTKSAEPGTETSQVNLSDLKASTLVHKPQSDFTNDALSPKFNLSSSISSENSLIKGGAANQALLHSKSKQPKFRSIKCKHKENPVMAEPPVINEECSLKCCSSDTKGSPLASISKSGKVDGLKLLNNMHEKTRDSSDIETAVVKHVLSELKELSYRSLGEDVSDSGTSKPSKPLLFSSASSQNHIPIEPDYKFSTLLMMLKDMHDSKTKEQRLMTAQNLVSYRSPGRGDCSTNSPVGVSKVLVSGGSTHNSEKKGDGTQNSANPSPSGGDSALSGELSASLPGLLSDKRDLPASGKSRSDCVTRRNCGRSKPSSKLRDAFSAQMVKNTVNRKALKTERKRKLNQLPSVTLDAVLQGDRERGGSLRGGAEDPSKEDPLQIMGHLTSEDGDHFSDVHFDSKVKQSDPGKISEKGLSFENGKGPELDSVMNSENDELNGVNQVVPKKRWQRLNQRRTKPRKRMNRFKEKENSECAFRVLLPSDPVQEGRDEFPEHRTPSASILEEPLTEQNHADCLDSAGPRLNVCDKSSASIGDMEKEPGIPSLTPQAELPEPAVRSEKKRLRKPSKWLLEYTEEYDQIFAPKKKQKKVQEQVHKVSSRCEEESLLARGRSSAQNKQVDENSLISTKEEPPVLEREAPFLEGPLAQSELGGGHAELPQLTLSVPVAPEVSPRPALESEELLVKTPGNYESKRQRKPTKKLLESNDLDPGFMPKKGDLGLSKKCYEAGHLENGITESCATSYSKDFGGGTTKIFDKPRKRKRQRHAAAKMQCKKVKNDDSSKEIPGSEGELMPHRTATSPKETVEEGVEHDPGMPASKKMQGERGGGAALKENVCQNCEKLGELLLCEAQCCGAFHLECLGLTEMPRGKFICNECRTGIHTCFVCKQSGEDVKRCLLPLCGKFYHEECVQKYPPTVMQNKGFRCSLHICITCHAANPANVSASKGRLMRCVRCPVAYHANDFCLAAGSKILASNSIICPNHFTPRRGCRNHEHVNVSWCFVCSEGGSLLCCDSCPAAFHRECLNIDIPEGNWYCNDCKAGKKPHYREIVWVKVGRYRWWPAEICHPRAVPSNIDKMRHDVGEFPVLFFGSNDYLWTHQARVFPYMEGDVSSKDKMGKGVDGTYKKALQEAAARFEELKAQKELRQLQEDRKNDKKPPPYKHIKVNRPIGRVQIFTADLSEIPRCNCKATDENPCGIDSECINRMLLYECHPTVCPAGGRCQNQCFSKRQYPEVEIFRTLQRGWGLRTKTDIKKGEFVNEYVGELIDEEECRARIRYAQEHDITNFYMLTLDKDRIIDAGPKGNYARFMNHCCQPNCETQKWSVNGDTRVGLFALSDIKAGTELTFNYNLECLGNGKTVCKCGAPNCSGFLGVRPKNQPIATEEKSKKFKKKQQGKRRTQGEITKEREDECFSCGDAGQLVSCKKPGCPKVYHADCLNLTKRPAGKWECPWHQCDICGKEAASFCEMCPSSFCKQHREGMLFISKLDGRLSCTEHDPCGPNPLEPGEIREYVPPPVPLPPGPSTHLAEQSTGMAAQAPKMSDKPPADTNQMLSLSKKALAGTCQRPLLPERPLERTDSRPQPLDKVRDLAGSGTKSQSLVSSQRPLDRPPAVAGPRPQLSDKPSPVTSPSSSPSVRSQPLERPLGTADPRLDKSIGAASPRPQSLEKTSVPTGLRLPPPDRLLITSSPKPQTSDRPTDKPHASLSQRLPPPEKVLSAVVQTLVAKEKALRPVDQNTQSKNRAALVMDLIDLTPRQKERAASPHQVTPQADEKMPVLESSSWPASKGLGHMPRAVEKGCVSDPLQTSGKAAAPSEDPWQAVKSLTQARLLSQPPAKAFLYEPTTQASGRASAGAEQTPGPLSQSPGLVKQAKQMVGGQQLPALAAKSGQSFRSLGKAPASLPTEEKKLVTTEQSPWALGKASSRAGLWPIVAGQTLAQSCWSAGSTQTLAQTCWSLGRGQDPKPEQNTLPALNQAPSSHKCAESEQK
The target in experiment [7] is T2, Histone-lysine N-methyltransferase NSD3 (Homo sapiens, UniProt Q9BZ95).
T2 sequence (Q9BZ95 whole entry): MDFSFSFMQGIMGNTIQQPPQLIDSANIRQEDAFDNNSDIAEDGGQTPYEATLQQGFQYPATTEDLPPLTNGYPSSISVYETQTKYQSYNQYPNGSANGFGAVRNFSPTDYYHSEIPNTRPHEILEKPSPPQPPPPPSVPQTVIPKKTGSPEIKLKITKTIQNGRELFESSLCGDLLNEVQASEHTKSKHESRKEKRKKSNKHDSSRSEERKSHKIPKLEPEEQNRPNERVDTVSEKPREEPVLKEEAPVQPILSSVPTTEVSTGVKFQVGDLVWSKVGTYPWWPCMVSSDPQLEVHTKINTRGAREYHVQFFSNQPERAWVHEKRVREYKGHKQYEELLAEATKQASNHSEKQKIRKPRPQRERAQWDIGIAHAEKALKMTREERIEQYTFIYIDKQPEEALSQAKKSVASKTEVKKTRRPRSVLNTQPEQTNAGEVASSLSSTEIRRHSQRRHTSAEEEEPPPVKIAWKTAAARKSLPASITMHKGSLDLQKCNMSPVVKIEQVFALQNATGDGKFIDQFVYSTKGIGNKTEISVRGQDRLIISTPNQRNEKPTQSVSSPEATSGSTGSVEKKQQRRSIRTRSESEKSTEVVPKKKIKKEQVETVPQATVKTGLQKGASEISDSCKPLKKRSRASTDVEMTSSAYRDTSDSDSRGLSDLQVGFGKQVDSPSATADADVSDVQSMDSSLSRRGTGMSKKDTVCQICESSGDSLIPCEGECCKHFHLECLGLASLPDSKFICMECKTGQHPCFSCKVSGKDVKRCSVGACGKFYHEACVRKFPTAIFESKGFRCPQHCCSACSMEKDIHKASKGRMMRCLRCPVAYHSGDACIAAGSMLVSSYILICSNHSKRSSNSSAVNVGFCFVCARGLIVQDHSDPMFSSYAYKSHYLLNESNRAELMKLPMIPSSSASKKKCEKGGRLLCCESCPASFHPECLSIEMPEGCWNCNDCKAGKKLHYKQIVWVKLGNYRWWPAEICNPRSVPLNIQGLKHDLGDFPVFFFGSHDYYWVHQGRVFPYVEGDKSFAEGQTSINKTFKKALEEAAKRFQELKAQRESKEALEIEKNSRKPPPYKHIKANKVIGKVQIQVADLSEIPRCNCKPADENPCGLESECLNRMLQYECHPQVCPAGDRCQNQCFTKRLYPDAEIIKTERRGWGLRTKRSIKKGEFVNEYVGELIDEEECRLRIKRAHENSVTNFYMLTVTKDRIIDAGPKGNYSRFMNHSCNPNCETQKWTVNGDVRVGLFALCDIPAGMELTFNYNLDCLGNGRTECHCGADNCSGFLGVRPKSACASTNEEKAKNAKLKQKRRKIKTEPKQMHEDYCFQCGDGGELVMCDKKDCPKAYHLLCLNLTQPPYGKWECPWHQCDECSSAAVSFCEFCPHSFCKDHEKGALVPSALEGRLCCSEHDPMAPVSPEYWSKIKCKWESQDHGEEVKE
The experiment in a line: Inhibition of NSD3 (unknown origin) using H3K36 as substrate.

Experiment [8] has as its target T1, Histone-lysine N-methyltransferase NSD2. The experiment in a line: Inhibition of NSD2 in human CGTH-W-1 cells assessed as reduction in H3K36me2 level incubated for 72 hrs by ELISA. Format: cell-based.
For experiment [9] the target is unchanged. The experiment in a line: Inhibition of NSD2 in human KMS-11-Par cells assessed as reduction in H3K36me2 level incubated for 72 hrs by ELISA. The experiment is classed as cell-based.
Experiment [10] has as its system PC-3. The experiment in a line: Antiproliferative activity against human PC-3 cells. Format: functional, cell-based.
The subject of experiment [11] is NCI-H2228. The experiment in a line: Antiproliferative activity against human NCI-H2228 cells. The experiment is classed as functional, cell-based.
The subject of experiment [12] is MDA-MB-231. In words: Antiproliferative activity against human MDA-MB-231 cells. Format: functional, cell-based.
Experiment [13] deals with SK-OV-3. The experiment in a line: Antiproliferative activity against human SK-OV-3 cells. The experiment is classed as functional, cell-based.
Experiment [14] has as its target T1, Histone-lysine N-methyltransferase NSD2. In words: Inhibition of 15N-labeled NSD2 (953 to 1240 residues) (unknown origin) expressed in Escherichia coli BL21 DE3 using H3K36 as substrate incubated for 60 mins by Alphascreen assay.

In experiment [1], `Cc1cc(CN)cc(C)c1-c1ncn(C)c1-c1ccnc2cc(F)ccc12` gave a 50% inhibitory concentration (IC50) of 0.203 µM.
The compound `NNc1nc2ccccc2nc1S` registered a 50% inhibitory concentration (IC50) in experiment [2] of less than 3 µM.
With `N#Cc1cccc(NC(=O)Nc2ccc3nnsc3c2)c1`, in [3], inhibition was half-maximal at 7.5 µM (IC50).
`O=C1COc2cc(C(=O)N(Cc3cccs3)C3CC3)ccc2N1` registered a Kd in experiment [4] of 0.349 µM.
`C=CC(=O)Nc1cc(NC(=O)Nc2ccc3nnsc3c2)cc(C(=O)OC)c1` displayed an IC50 in [3] of 8.1 µM.
For `O=C(NCCCN(Cc1nc2sc3c(c2c(=O)[nH]1)CCCC3)Cc1nc2sc3c(c2c(=O)[nH]1)CCCC3)c1cc2ccccc2c(=O)o1`, the IC50 stood at 111 µM in experiment [5], 418 µM in experiment [6] and 60 µM in experiment [7].
With `O=C(Nc1cccc([N+](=O)[O-])c1)Nc1ccc2nnsc2c1`, in experiment [3], the IC50 worked out at 4.8 µM.
The same measure, in the same setting: the figure for `CC(=O)c1ccc(-c2cc(NC(=O)Nc3ccc4nnsc4c3)cc(C(F)(F)F)c2)s1` is 7.3 µM.
Regarding `Nc1ncnc2c1ncn2Cc1cc(-c2ccc(F)c(F)c2)ncc1N1CCC[C@](N)(c2ccccn2)C1`, the half-inhibitory concentration (IC50) in [8] worked out at 0.018 µM; in experiment [9] it was 0.041 µM.
Consider `COC(=O)c1cc(NC(=O)Nc2ccc3nnsc3c2)cc(C(=O)OC)c1`, for which the IC50 in [3] stood at 3.7 µM; in experiment [10], 4.2 µM; in experiment [11], 6.8 µM; in experiment [12], 5.1 µM; in [13] it was 2.6 µM.
On to `CC(C)N(Cc1ccc(C(=O)Nc2ccncn2)cc1)C(=O)c1ccc2c(c1)OCC(=O)N2`, for which the Kd in experiment [4] is more than 20 µM.
As to `Cn1nnc2ccc(NC(=O)Nc3cccc([N+](=O)[O-])c3)cc21`, in experiment [3], the half-inhibitory concentration (IC50) was 8.3 µM.
As to `CC[C@H](C)C(=O)[C@@]1(N)CCCN(c2cnc(-c3ccc(F)c(F)c3)cc2Cn2cnc3c(N)ncnc32)C1`, the half-maximal inhibitory concentration (IC50) in experiment [8] turned out to be 0.04 µM; in [9] it was 0.034 µM.
On the same counts, the results for `CNC(=O)[C@@]1(N)CCCN(c2cnc(-c3cccc(F)c3)cc2Cn2cnc3c(N)ncnc32)C1` are 0.012 µM and 0.078 µM.
For the compound `CC(C)CN[C@@H](CC[C@H](N)C(=O)O)C[C@H]1O[C@@H](n2cnc3c(N)ncnc32)[C@H](O)[C@@H]1O`, half-maximal inhibition in [14] (IC50) required 1.8 µM.
As to `Nc1ncnc2c1ncn2[C@@H]1O[C@H](C[C@@H](N)CC[C@H](N)C(=O)O)[C@@H](O)[C@H]1O` [SINEFUNGIN], the midpoint of inhibition in experiment [14], the IC50, lay at 46 µM.
